This note sets out measurements from paper PMC5218480 (PLoS ONE, 2017).

For the assay, the system named is MV-4-11 cells. As to the kind of experiment: Gene expression microarray analysis (Affymetrix PrimeView) and GSEA. Type of assay: cell-based, human. Also on record: RFU PODN (11730768_x_at) / Fold change /veh PODN (11730768_x_at) / RFU LINC00158 (11744669_a_at) / Fold change /veh LINC00158 (11744669_a_at) / RFU DUSP10 (11751237_a_at) / Fold change /veh DUSP10 (11751237_a_at) / RFU ID3 (11757404_x_at) / Fold change /veh ID3 (11757404_x_at) / RFU PLEKHG5 (11737974_s_at) / Fold change /veh PLEKHG5 (11737974_s_at) / RFU LRRC4B (11730491_at) / Fold change /veh LRRC4B (11730491_at) / RFU GIMAP4 (11747438_a_at) / Fold change /veh GIMAP4 (11747438_a_at) / RFU KRT8 (11758183_x_at) / Fold change /veh KRT8 (11758183_x_at) / RFU CNN1 (11734310_a_at) / Fold change /veh CNN1 (11734310_a_at) / RFU VPS37D (11726825_at) / Fold change /veh VPS37D (11726825_at) / RFU C10orf10 (11716522_x_at) / Fold change /veh C10orf10 (11716522_x_at) / RFU KIR2DL2 /// KIR2DL4 /// KIR2DL5A /// KIR2DL5B /// KIR2DS1 /// KIR2DS2 /// KIR2DS3 /// KIR2DS4 /// KIR3DL3 /// KIR3DL3 /// KIR3DS1 (11738374_at) / Fold change /veh KIR2DL2 /// KIR2DL4 /// KIR2DL5A /// KIR2DL5B /// KIR2DS1 /// KIR2DS2 /// KIR2DS3 /// KIR2DS4 /// KIR3DL3 /// KIR3DL3 /// KIR3DS1 (11738374_at) / RFU C1QL1 (11718748_at) / Fold change /veh C1QL1 (11718748_at) / RFU TMPRSS4 (11747572_a_at) / Fold change /veh TMPRSS4 (11747572_a_at) / RFU HAMP (11756126_x_at) / Fold change /veh HAMP (11756126_x_at) / RFU RNFT2 (11725882_a_at) / Fold change /veh RNFT2 (11725882_a_at) / RFU NR4A2 (11747474_a_at) / Fold change /veh NR4A2 (11747474_a_at) / RFU ABCC12 (11746883_a_at) / Fold change /veh ABCC12 (11746883_a_at) / RFU TMEM136 (11760407_x_at) / Fold change /veh TMEM136 (11760407_x_at) / RFU CLDN22 /// WWC2 (11732394_at) / Fold change /veh CLDN22 /// WWC2 (11732394_at) / RFU HLA-DPB1 (11760878_x_at) / Fold change /veh HLA-DPB1 (11760878_x_at) / RFU SPINT1 (11716480_a_at) / Fold change /veh SPINT1 (11716480_a_at) / RFU GAP43 (11754022_s_at) / Fold change /veh GAP43 (11754022_s_at) / RFU A4GNT (11735810_at) / Fold change /veh A4GNT (11735810_at) / RFU PRB3 (11715151_x_at) / Fold change /veh PRB3 (11715151_x_at) / RFU TUBB4B (11761932_at) / Fold change /veh TUBB4B (11761932_at) / RFU CAPN14 (11732068_a_at) / Fold change /veh CAPN14 (11732068_a_at) / RFU TMCC2 (11721928_a_at) / Fold change /veh TMCC2 (11721928_a_at) / RFU IRGQ (11745062_a_at) / Fold change /veh IRGQ (11745062_a_at) / RFU FAM174B (11720279_a_at) / Fold change /veh FAM174B (11720279_a_at) / RFU TMPRSS4 (11748680_a_at) / Fold change /veh TMPRSS4 (11748680_a_at) / RFU FAM212B (11763350_a_at) / Fold change /veh FAM212B (11763350_a_at) / RFU PLEKHG5 (11743358_a_at) / Fold change /veh PLEKHG5 (11743358_a_at) / RFU ZSCAN30 (11745921_a_at) / Fold change /veh ZSCAN30 (11745921_a_at) / RFU CMKLR1 (11741424_a_at) / Fold change /veh CMKLR1 (11741424_a_at) / RFU LOC101060620 /// MAPK8IP1 (11723275_at) / Fold change /veh LOC101060620 /// MAPK8IP1 (11723275_at) / RFU SPTSSB (11747773_x_at) / Fold change /veh SPTSSB (11747773_x_at) / RFU PRSS12 (11739890_at) / Fold change /veh PRSS12 (11739890_at) / RFU BIN1 (11741810_x_at) / Fold change /veh BIN1 (11741810_x_at) / RFU WNT11 (11732464_a_at) / Fold change /veh WNT11 (11732464_a_at) / RFU C10orf10 (11716521_a_at) / Fold change /veh C10orf10 (11716521_a_at) / RFU C5orf56 (11738089_at) / Fold change /veh C5orf56 (11738089_at) / RFU CYB561 (11721691_x_at) / Fold change /veh CYB561 (11721691_x_at) / RFU ANKRD19P (11752326_a_at) / Fold change /veh ANKRD19P (11752326_a_at) / RFU OR2T12 /// OR2T33 /// OR2T8 (11738714_s_at) / Fold change /veh OR2T12 /// OR2T33 /// OR2T8 (11738714_s_at) / RFU VCAN (11748164_a_at) / Fold change /veh VCAN (11748164_a_at) / RFU JSRP1 (11732532_at) / Fold change /veh JSRP1 (11732532_at) / RFU KRTAP10-11 (11738290_x_at) / Fold change /veh KRTAP10-11 (11738290_x_at) / RFU MYO3A (11730013_a_at) / Fold change /veh MYO3A (11730013_a_at) / RFU EBF3 (11725865_a_at) / Fold change /veh EBF3 (11725865_a_at) / RFU CAMK2N1 (11719241_x_at) / Fold change /veh CAMK2N1 (11719241_x_at) / RFU C5orf56 (11738088_a_at) / Fold change /veh C5orf56 (11738088_a_at) / RFU OLFML3 (11715873_a_at) / Fold change /veh OLFML3 (11715873_a_at) / RFU LOC100653217 /// NTM (11731650_a_at) / Fold change /veh LOC100653217 /// NTM (11731650_a_at) / RFU MAPK11 (11762145_a_at) / Fold change /veh MAPK11 (11762145_a_at) / RFU FIZ1 (11724087_x_at) / Fold change /veh FIZ1 (11724087_x_at) / RFU OASL (11726364_x_at) / Fold change /veh OASL (11726364_x_at) / RFU SOX15 (11748057_x_at) / Fold change /veh SOX15 (11748057_x_at) / RFU CD79A (11719716_a_at) / Fold change /veh CD79A (11719716_a_at) / RFU HIST1H1D (11736915_at) / Fold change /veh HIST1H1D (11736915_at) / RFU CASKIN2 (11723855_a_at) / Fold change /veh CASKIN2 (11723855_a_at) / RFU LOC730098 (11760151_x_at) / Fold change /veh LOC730098 (11760151_x_at) / RFU OR4N2 (11742367_at) / Fold change /veh OR4N2 (11742367_at) / RFU PRRT2 (11749266_a_at) / Fold change /veh PRRT2 (11749266_a_at) / RFU SNX32 (11753110_a_at) / Fold change /veh SNX32 (11753110_a_at) / RFU CDHR5 (11726645_a_at) / Fold change /veh CDHR5 (11726645_a_at) / RFU RCAN1 (11760418_a_at) / Fold change /veh RCAN1 (11760418_a_at) / RFU FAM167A (11723789_a_at) / Fold change /veh FAM167A (11723789_a_at) / RFU FAM26E (11764081_at) / Fold change /veh FAM26E (11764081_at) / RFU ISYNA1 (11749810_s_at) / Fold change /veh ISYNA1 (11749810_s_at) / RFU ACY1 (11761880_at) / Fold change /veh ACY1 (11761880_at) / RFU 11764098_at / Fold change /veh 11764098_at / RFU SAMD14 (11745864_x_at) / Fold change /veh SAMD14 (11745864_x_at) / RFU NPB (11741838_a_at) / Fold change /veh NPB (11741838_a_at) / RFU TMPRSS6 (11731388_a_at) / Fold change /veh TMPRSS6 (11731388_a_at) / RFU KRTAP10-2 (11738614_at) / Fold change /veh KRTAP10-2 (11738614_at) / RFU ARHGAP8 /// PRR5-ARHGAP8 (11727945_x_at) / Fold change /veh ARHGAP8 /// PRR5-ARHGAP8 (11727945_x_at) / RFU KRTAP5-7 /// NADSYN1 (11734609_at) / Fold change /veh KRTAP5-7 /// NADSYN1 (11734609_at) / RFU RASL12 (11751679_a_at) / Fold change /veh RASL12 (11751679_a_at) / RFU CDKN2B (11736163_a_at) / Fold change /veh CDKN2B (11736163_a_at) / RFU PRF1 (11729649_at) / Fold change /veh PRF1 (11729649_at) / RFU, ZNF638 /// ZNF638-IT1 / Fold change vs veh, ZNF638 /// ZNF638-IT1 / RFU, PANK3 / Fold change vs veh, PANK3 / RFU, SH3YL1 / Fold change vs veh, SH3YL1 / RFU, ZEB2 / Fold change vs veh, ZEB2 / RFU, NRIP1 / Fold change vs veh, NRIP1 / RFU, PTTG1IP / Fold change vs veh, PTTG1IP / RFU, CAPN2 / Fold change vs veh, CAPN2 / RFU, MED14 / Fold change vs veh, MED14 / RFU, SNORA58 / Fold change vs veh, SNORA58 / RFU, C1orf63 / Fold change vs veh, C1orf63 / RFU, LRRFIP1 / Fold change vs veh, LRRFIP1 / RFU, NDUFAF7 / Fold change vs veh, NDUFAF7 / RFU, SLC12A2 / Fold change vs veh, SLC12A2 / RFU, IBTK / Fold change vs veh, IBTK / RFU, ESF1 / Fold change vs veh, ESF1 / Fold change vs veh, TMEM50B / RFU, TAOK1 / Fold change vs veh, TAOK1 / RFU, ACBD3 / Fold change vs veh, ACBD3 / RFU, TMA16 / Fold change vs veh, TMA16 / RFU, RWDD3 / Fold change vs veh, RWDD3 / RFU, BCAT1 / Fold change vs veh, BCAT1 / RFU, EDEM3 / Fold change vs veh, EDEM3 / RFU, TMEM33 / Fold change vs veh, TMEM33 / RFU, WDR75 / Fold change vs veh, WDR75 / RFU, AHCTF1 / Fold change vs veh, AHCTF1 / RFU, TFRC / Fold change vs veh, TFRC / RFU, ZDHHC17 / Fold change vs veh, ZDHHC17 / RFU, NOM1 / Fold change vs veh, NOM1 / RFU, ARL8B / Fold change vs veh, ARL8B / RFU, ZBTB11 / Fold change vs veh, ZBTB11 / RFU, TAMM41 / Fold change vs veh, TAMM41 / RFU, KIAA1704 /// LOC100996395 / Fold change vs veh, KIAA1704 /// LOC100996395 / RFU, ING1 / Fold change vs veh, ING1 / RFU, TRMT61B / Fold change vs veh, TRMT61B / RFU, FUBP3 / Fold change vs veh, FUBP3 / RFU, TP53 / Fold change vs veh, TP53 / RFU, TNKS2 / Fold change vs veh, TNKS2 / RFU, ZFP14 / Fold change vs veh, ZFP14 / RFU, ACTR2 / Fold change vs veh, ACTR2 / RFU, PPP3R1 / Fold change vs veh, PPP3R1 / RFU, PIK3R1 / Fold change vs veh, PIK3R1 / RFU, HNRNPA1 / Fold change vs veh, HNRNPA1 / RFU, RNF170 / Fold change vs veh, RNF170 / RFU, ZNF28 / Fold change vs veh, ZNF28 / RFU, RNGTT / Fold change vs veh, RNGTT / RFU, OGT / Fold change vs veh, OGT / RFU, BRD1 / Fold change vs veh, BRD1 / RFU, MARS / Fold change vs veh, MARS / RFU, ZNF655 / Fold change vs veh, ZNF655 / RFU, FAHD1 / Fold change vs veh, FAHD1 / RFU, BDP1 / Fold change vs veh, BDP1 / RFU, LRRCC1 / Fold change vs veh, LRRCC1 / RFU, ARID1A / Fold change vs veh, ARID1A / RFU, ZNF146 / Fold change vs veh, ZNF146 / RFU, ZNF330 / Fold change vs veh, ZNF330 / RFU, GPN3 / Fold change vs veh, GPN3 / RFU, C9orf123 / Fold change vs veh, C9orf123 / RFU, N4BP2L2 / Fold change vs veh, N4BP2L2 / RFU, ARFIP1 / Fold change vs veh, ARFIP1 / RFU, FAM179B / Fold change vs veh, FAM179B / RFU, BCL10 / Fold change vs veh, BCL10 / RFU, UHRF1BP1L / Fold change vs veh, UHRF1BP1L / RFU, BET1 / Fold change vs veh, BET1 / RFU, CNOT2 / Fold change vs veh, CNOT2 / RFU, ZNF268 / Fold change vs veh, ZNF268 / Fold change vs veh, ZNF507 / RFU, DGCR2 / Fold change vs veh, DGCR2 / RFU, WDSUB1 / Fold change vs veh, WDSUB1 / Fold change vs veh, HSP90B1 /// MIR3652 / RFU, ADSS / Fold change vs veh, ADSS / RFU, GK / Fold change vs veh, GK / RFU, ZNF148 / Fold change vs veh, ZNF148 / RFU, TAF9 / Fold change vs veh, TAF9 / RFU, SLC1A5 / Fold change vs veh, SLC1A5 / RFU, SLMO2 / Fold change vs veh, SLMO2 / RFU, ABCC4 / Fold change vs veh, ABCC4 / RFU, LOC101060439 /// RAP1B / Fold change vs veh, LOC101060439 /// RAP1B / RFU, RFX7 / Fold change vs veh, RFX7 / RFU, GTPBP10 / Fold change vs veh, GTPBP10 / RFU, CNEP1R1 / Fold change vs veh, CNEP1R1 / RFU, BIVM-ERCC5 /// ERCC5 / Fold change vs veh, BIVM-ERCC5 /// ERCC5 / RFU, ILF3 / Fold change vs veh, ILF3 / RFU 11762660_at / Fold change /veh 11762660_at / RFU VCAN (11757783_s_at) / Fold change /veh VCAN (11757783_s_at) / RFU DDX43 (11728927_at) / Fold change /veh DDX43 (11728927_at) / RFU KRT8 (11758188_x_at) / Fold change /veh KRT8 (11758188_x_at) / RFU NKD1 (11759106_at) / Fold change /veh NKD1 (11759106_at) / RFU SRD5A1 (11742802_a_at) / Fold change /veh SRD5A1 (11742802_a_at) / RFU TPSAB1 /// TPSB2 (11721975_s_at) / Fold change /veh TPSAB1 /// TPSB2 (11721975_s_at) / RFU GSTM3 (11746129_a_at) / Fold change /veh GSTM3 (11746129_a_at) / RFU IL23R (11737362_x_at) / Fold change /veh IL23R (11737362_x_at) / RFU TMEM51 (11727254_a_at) / Fold change /veh TMEM51 (11727254_a_at) / RFU PIWIL2 (11732686_x_at) / Fold change /veh PIWIL2 (11732686_x_at) / RFU ORM1 (11744905_x_at) / Fold change /veh ORM1 (11744905_x_at) / RFU CCDC152 (11743942_at) / Fold change /veh CCDC152 (11743942_at) / RFU ECM1 (11717891_a_at) / Fold change /veh ECM1 (11717891_a_at) / RFU IL23R (11748794_a_at) / Fold change /veh IL23R (11748794_a_at) / RFU TNFAIP8L3 (11732012_x_at) / Fold change /veh TNFAIP8L3 (11732012_x_at) / RFU MBOAT4 (11741988_at) / Fold change /veh MBOAT4 (11741988_at) / RFU 11764193_at / Fold change /veh 11764193_at / RFU TMEM53 (11763286_at) / Fold change /veh TMEM53 (11763286_at) / RFU MAGEB2 (11727129_at) / Fold change /veh MAGEB2 (11727129_at) / RFU TMEM200A (11744735_a_at) / Fold change /veh TMEM200A (11744735_a_at) / RFU CCDC152 (11751479_a_at) / Fold change /veh CCDC152 (11751479_a_at) / RFU FAM211A (11726209_a_at) / Fold change /veh FAM211A (11726209_a_at) / RFU RGS16 (11746705_a_at) / Fold change /veh RGS16 (11746705_a_at) / RFU VCAN (11755009_s_at) / Fold change /veh VCAN (11755009_s_at) / RFU RHOB (11743442_s_at) / Fold change /veh RHOB (11743442_s_at) / RFU RGS16 (11720943_a_at) / Fold change /veh RGS16 (11720943_a_at) / RFU RGS16 (11720944_at) / Fold change /veh RGS16 (11720944_at) / RFU, VPS4B / Fold change vs veh, VPS4B / RFU, CREB1 / Fold change vs veh, CREB1 / RFU, DNAJC13 / Fold change vs veh, DNAJC13 / RFU, GNAQ / Fold change vs veh, GNAQ / RFU, CDK5R1 / Fold change vs veh, CDK5R1 / RFU, ZRANB3 / Fold change vs veh, ZRANB3 / RFU, CUL4A / Fold change vs veh, CUL4A / RFU, CCNY / Fold change vs veh, CCNY / RFU, UFL1 / Fold change vs veh, UFL1 / RFU, COG3 / Fold change vs veh, COG3 / RFU, DIAPH2 / Fold change vs veh, DIAPH2 / RFU, SKA2 / Fold change vs veh, SKA2 / RFU, AFF3 / Fold change vs veh, AFF3 / RFU, LMF1 / Fold change vs veh, LMF1 / RFU, IPO11 / Fold change vs veh, IPO11 / RFU, DFFB / Fold change vs veh, DFFB / RFU, FOXP1 / Fold change vs veh, FOXP1 / RFU, CARD8 / Fold change vs veh, CARD8 / RFU, STRN3 / Fold change vs veh, STRN3 / RFU, ADK / Fold change vs veh, ADK / RFU, RASSF2 / Fold change vs veh, RASSF2 / RFU, WIPF1 / Fold change vs veh, WIPF1 / RFU, LARP1B / Fold change vs veh, LARP1B / RFU, RASA1 / Fold change vs veh, RASA1 / RFU, RB1 / Fold change vs veh, RB1 / RFU, PPFIA1 / Fold change vs veh, PPFIA1 / RFU, MAT2A / Fold change vs veh, MAT2A / RFU, CCT5 / Fold change vs veh, CCT5 / RFU, WDR92 / Fold change vs veh, WDR92 / RFU, CUX1 / Fold change vs veh, CUX1 / RFU, TTC7A / Fold change vs veh, TTC7A / RFU, TMEM135 / Fold change vs veh, TMEM135 / RFU, DEPTOR / Fold change vs veh, DEPTOR / RFU, CPM / Fold change vs veh, CPM / RFU, DNAJB6 / Fold change vs veh, DNAJB6 / RFU, CACNA2D3 / Fold change vs veh, CACNA2D3 / RFU, DTX4 / Fold change vs veh, DTX4 / RFU, TFCP2 / Fold change vs veh, TFCP2 / RFU, GMCL1 /// GMCL1P1 / Fold change vs veh, GMCL1 /// GMCL1P1 / RFU, AEBP2 / Fold change vs veh, AEBP2 / RFU, SNHG1 /// SNORD22 /// SNORD25 /// SNORD26 /// SNORD27 /// SNORD28 /// SNORD29 /// SNORD31 / Fold change vs veh, SNHG1 /// SNORD22 /// SNORD25 /// SNORD26 /// SNORD27 /// SNORD28 /// SNORD29 /// SNORD31 / Fold change (Aza/veh), C12orf56 (ProbeSet 11735607_a_at) / Fold change (ACY-1035/veh), C12orf56 (ProbeSet 11735607_a_at) / Fold change (Aza/veh), FGFR1OP (ProbeSet 11751329_s_at) / Fold change (ACY-1035/veh), FGFR1OP (ProbeSet 11751329_s_at) / Fold change (Aza/veh), VPS36 (ProbeSet 11739960_a_at) / Fold change (ACY-1035/veh), VPS36 (ProbeSet 11739960_a_at) / RFU SYPL1 (11715823_x_at) / Fold change /veh SYPL1 (11715823_x_at) / RFU IGFBP7 (11715501_s_at) / Fold change /veh IGFBP7 (11715501_s_at) / RFU REEP3 (11722064_at) / Fold change /veh REEP3 (11722064_at) / RFU IGLL1 (11728026_x_at) / Fold change /veh IGLL1 (11728026_x_at): dose or concentration left out as unconfirmed. As to conditions: MV-4-11 cells, 48 hours.

Turning to `Nc1ccc(-c2cccs2)cc1NC(=O)c1ccc2c(c1)cc(C1CC1)n2CCN1CCOCC1` [ACY-1035], the “Fold change /veh RHOB (11743442_s_at)” value was determined as 1.20.
